Entries after “also recorded” stand apart in the source; their conditions may differ.

One assay relates to VEGF. Put plainly: VEGF mRNA expression by Real Time PCR in OA synovial fibroblast cells. It counts as cell-based, human. To be noted: increasing concentrations: Coll2-1 (0.45 and 4.5 nmol) or Coll2-1NO2 (4 and 40 pmol), 24 hours. Here is the method:
(§1) 1.3 Treatment of synovial fibroblast cells. Cells were seeded into a six-well plate at the density of 2×10^5 cells/well in 2 ml of CM. When the cells reached confluence, the CM was replaced with 1% serum medium for 24 h to keep the cells quiescent. Cells were incubated for 24 hours with or without peptides Coll2-1 (^108HRGYPGLDG^116; 0.45 and 4.5 nmol) or Coll2-1NO2 (^108HRGYPGLDG-NO2^116; 4 and 40 pmol) at a range of concentrations found in the blood of osteoarthritic patients.
(§2) 1.4 RNA extraction and Real Time Reverse Transcriptase-Polymerase Chain Reaction (RT PCR). Total RNA were extracted using the RNeasy Mini Kit (Qiagen, Netherlands) and were reverse transcribed with SuperScript III Reverse Transcriptase (Invitrogen, Belgium) according to the manufacturer's instructions. The cDNAs were quantified by real-time quantitative PCR using the Rotor Gene instrument (Qiagen, Venlo, Netherlands) and the SYBR Premix Ex Taq kit (Takara, Verviers, Belgium). The level of gene expression was determined by interpolation with a standard curve. To standardize mRNA levels, HPRT, a house keeping gene, was amplified as an internal control. […]
(In qPCR the cycle at which signal appears reflects the starting amount.)

For the next assay, the system named is IL-6. Put plainly: IL-6 mRNA expression by Real Time PCR in OA synovial fibroblast cells. It counts as cell-based, human. As to conditions: increasing concentrations of peptide, 24 hours. Here is the method: as §1, §2
The subject of the next assay is NF-κB. Description: NF-κB activation, Western blotting of phospho-p65 and phospho-IκBα. It counts as cell-based. As to conditions: in the presence of Coll2-1. How it is done:
Western blotting. Cells were collected at 4° C. and lysed on ice in 50 μl of buffer (25 mM Hepes, 150 mM NaCl, 0.5% Triton X-100, 10% glycerol, and 1 mM dithiothreitol) containing protease and phosphatase inhibitors. After incubation at 4° C. for 30 minutes, lysates were then centrifugated at 14,000 g for 30 minutes at 4° C. to remove insoluble debris. Protein concentrations were determined using BCA assay. Total protein extracts (10 μg) were fractioned by electrophoresis on a polyacrylamide gel (10%) and transferred onto a PVDF membrane. Membrane were blocked for 1 h in TBS-Tween containing 2% bovine serum albumin (phosphor-NF-κB p65 and phospho-IκBα). Membranes were then incubated overnight at 4° C. with primary antibodies. Anti-rabbit phospho-NF-κB p65 (1:1000 dilution), anti-rabbit phospho-IκBα (1:1000 dilution) were used. Horse-radish peroxidase (HRP)-linked anti-rabbit IgG antibody (1:2000 dilution) was used as secondary antibody.
Background: Immunoblotting shows a protein as a band on a membrane.

Assay [1] relates to OA synovial fibroblast cells. Description: Intracellular H2O2 production in OA synovial fibroblast cells. It counts as cell-based, human. How it is done: (§3) 1.1 Patients. Synovial tissue samples were obtained from 10 patients (8 women, 2 man; mean age 70 +/−6 years) with osteoarthritis (OA) of the knee at the time of total knee joint replacement surgery. All the subjects provided their informed consent.
(§4) 1.2 Isolation and culture of synovial cells. Synovium biopsies were digested is with collagenase from Clostridium histolyticum, Type IA (1 mg/ml) (Sigma-Aldrich, Saint-Louis, USA) and 0.25% trypsin (Sigma Aldrich, Saint Louis, USA) with 0.68 mM EDTA in Tris buffer 0.1M, pH 7.4 in complete medium (CM) (DMEM (Dulbecco's Modified Eagle's Medium) Low Glucose supplemented with 10 mM HEPES, 100 U/ml penicillin, 100 μg/ml streptomycin, 2 mM glutamine and 10% fetal calf serum (Lonza, Verviers, Belgium)) for 1 hour at 37° C. The cells suspensions were passed through a 70-μm filter to remove any undigested tissue. The filtered cells suspensions were then collected by centrifugation at 800 g and were cultured in culture flasks. After 24 hours, medium was changed to eliminate non adherent cells. Synovial fibroblasts cells (SFC) were used after three passages.
as §1
1.5 Intracellular H2O2 and O2^∘^− productions. Levels of intracellular superoxide anion (O2^∘^−) and hydrogen peroxide (H2O2) were assessed spectrofluorimetrically by oxidation of specific probes: dihydroethidium (Molecular Probes, Leiden, The Netherlands) and H2DCFH-DA (Molecular Probes, Leiden, The Netherlands) respectively. Synovial cells seeded on 96-well plates (8×10^3 cells per well) were washed once with phosphate-buffered saline and then incubated with 50 μL of phosphate-buffered saline containing either 250 μM dihydroethidium or 200 μM H2DCFH-DA. The fluorescence intensity was measured every hour for 6 hours. The levels of O2^∘^− or H2O2 are expressed in arbitrary unit/living cell. The numbers of adherent cells were measured by crystal violet assay.

The subject of the next assay is IL-8. Description: IL-8 mRNA expression by Real Time PCR in OA synovial fibroblast cells. The format is cell-based, human. As to conditions: 24 hours. How it is done: as §1
1.4 RNA extraction and Real Time Reverse Transcriptase-Polymerase Chain Reaction (RT PCR). Total RNA were extracted using the RNeasy Mini Kit (Qiagen, Netherlands) and were reverse transcribed with SuperScript III Reverse Transcriptase (Invitrogen, Belgium) according to the manufacturer's instructions. The cDNAs were quantified by real-time quantitative PCR using the Rotor Gene instrument (Qiagen, Venlo, Netherlands) and the SYBR Premix Ex Taq kit (Takara, Verviers, Belgium). The level of gene expression was determined by interpolation with a standard curve. To standardize mRNA levels, HPRT, a house keeping gene, was amplified as an internal control. The oligonucleotide primers sequences were as follow: HPRT forward, 5′-[…]-3′ (SEQ ID NO: 2); HPRT reverse, 5′-TGCCTGACCAAGGAAAGC-3′ (SEQ ID NO: 3); TSP-1 forward, 5′-CAGACCGCATTGGAGATAC-3′ (SEQ ID NO: 4); TSP-1 reverse, 5′-[…]-3′ (SEQ ID NO: 5); VEGF forward, 5′-TGCCTTGCTGCTCTAC-3′ (SEQ ID NO: 6); VEGF reverse, 5′-CACACAGGATGGCTTGAA-3′ (SEQ ID NO: 7); IL-6 forward, 5′-AAACAAATTCGGTACATCCTCG-3′ (SEQ ID NO: 8); IL-6 reverse, 5′-CCA GGC AAG TCT CCT CAT-3′ (SEQ ID NO: 9); IL-8 forward, 5′-GGAACCATCTCACTGTGTGTAA-3′ (SEQ ID NO: 10); IL-8 reverse, 5′-TGGAAAGGTTTGGAGTATGTCT-3′ (SEQ ID NO: 11).

Assay [2] deals with OA synovial fibroblast cells. Put plainly: NO production in OA synovial fibroblast cells. It counts as cell-based, human. As to conditions: Coll2-1 (0.45 and 4.5 nmol) or Coll2-1NO2 (4 and 40 pmol), 24 hours. How it is done:
as §3
as §4, with “passages. […]” for “passages.”
1.7 NO production. Nitric oxide production was evaluated using a DAF2-DA fluorescent probe (Molecular Probes, Leiden, The Netherlands). […] The fluorescence intensity was measured every hour for 6 hours. […] The numbers of adherent cells were measured by cristal violet assay.

Regarding HRGYPGLDG [Coll2-1], in the assay on VEGF, the VEGF expression entry is given as “tended to increase”. In addition, in the assay with IL-6, the IL-6 expression entry is given as “increased”. Further, the IκBα degradation entry in the assay with NF-κB is “induced”. In the assay on NF-κB, the “phosphorylation of p65 NF-κB subunit” value is recorded as “observed the phosphorylation”. The “intracellular production of H2O2” value in assay [1] (Coll2-1 at 4.5 nmol, 24 hours) is on record as “significantly increased”. For the same sequence, the H2O2 production result in assay [1] (increasing doses of Coll2-1 peptide) is “increase”. The IL8 gene expression entry with IL-8 (Coll2-1 at 0.45 nmol) and with IL-8 (Coll2-1 at 4.5 nmol) was “dose-dependently increased” throughout. Also, the IL-8 expression result in the assay on IL-8 (increasing concentrations: Coll2-1 (0.45 and 4.5 nmol) or Coll2-1NO2 (4 and 40 pmol)) is reported as “increased”. Further, the “production of NO (nitric oxide)” value in assay [2] is recorded as “decreased significantly; also recorded: decrease”.

Source of the values: patent publication US20170320939A1, “COLL2-1 PEPTIDE AND ITS NITRATED FORM AS THERAPEUTIC TARGETS FOR OSTEOARTHRITIS TREATMENT” (Université de Liège, priority 2014, published 2017).
